Biological target: T1, human GPR68 (Homo sapiens, UniProt Q15743)
T1 construct: encoding full-length human GPR68 (uniprot ID: Q15743); expressed in transfected cells; host or cells: HEK293T
Assay: GPR68 Biochemical Assay (Promega GloSensor cAMP assay, GPR68 antagonism)
Type: cell-based
Details: HEK293T cells transiently expressing hGPR68, antagonism of pH 5.5 stimulated cAMP, 15 min, read-out: hGPR68 IC50
How it was run: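 Readout is GloSensor cAMP luminescence after 15 min at room temperature, normalised between pH 5.5 stimulation and pH 8.0 minimum controls; IC50 fitted sigmoidally. Test compounds, up to 50 μM final (9-point half-log, 0.5% DMSO), were co-added with pH 5.5 buffer to HEK293T cells transiently expressing full-length human GPR68 plus GloSensor.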

T1 sequence (Q15743 whole entry): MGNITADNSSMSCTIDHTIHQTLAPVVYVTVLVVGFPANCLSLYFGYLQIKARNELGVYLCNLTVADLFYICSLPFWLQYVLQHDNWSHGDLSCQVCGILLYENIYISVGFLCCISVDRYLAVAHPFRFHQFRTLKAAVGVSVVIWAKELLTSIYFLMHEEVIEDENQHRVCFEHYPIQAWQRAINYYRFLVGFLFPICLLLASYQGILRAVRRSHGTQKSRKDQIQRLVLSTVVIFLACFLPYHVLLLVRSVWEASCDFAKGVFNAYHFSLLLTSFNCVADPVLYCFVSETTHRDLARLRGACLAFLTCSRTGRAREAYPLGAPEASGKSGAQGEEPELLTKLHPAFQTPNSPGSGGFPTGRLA

| Compound | IC50 |
| --- | --- |
| COCc1nn2c(C(=O)NCc3cnn(C)c3)ccnc2c1C(N)=O [Compound 63, 2-(methoxymethyl)-N7-[(1-methylpyrazol-4-yl)methyl]pyrazolo[1,5-a]pyrimidine-3,7-dicarboxamide] | 500 to 5000 nM |
| C[C@]1(O)C[C@@H](NC(=O)c2ccnc3c(C(N)=O)cnn23)C1 [Compound 8, N7-(cis-3-hydroxy-3-methyl-cyclobutyl)pyrazolo[1,5-a]pyrimidine-3,7-dicarboxamide] | 5000 to 50000 nM |
| COCc1nn2c(C(=O)Nc3cc(C(F)(F)F)ccn3)ccnc2c1C(N)=O [Compound 65, 2-(Methoxymethyl)-N7-[4-(trifluoromethyl)-2-pyridyl]pyrazolo[1,5-a]pyrimidine-3,7-dicarboxamide] | 50 to 500 nM |
| COCc1nn2c(C(=O)NC3CCc4ccc(F)cc4C3)ccnc2c1C(N)=O (centres unmarked) [Compound 82, N7-(7-fluorotetralin-2-yl)-2-(methoxymethyl)pyrazolo[1,5-a]pyrimidine-3,7-dicarboxamide] | < 50 nM |
| COCc1nc2c(C(=O)NC3CCC(F)(F)CC3)ccnn2c1C(N)=O [Compound 109, N8-(4,4-difluorocyclohexyl)-2-(methoxymethyl)imidazo[1,2-b]pyridazine-3,8-dicarboxamide] | < 50 nM |
| NC(=O)c1cnn2c(C(=O)NC3Cc4ccccc4C3)ccnc12 [Compound 1, N7-indan-2-ylpyrazolo[1,5-a]pyrimidine-3,7-dicarboxamide] | 50 to 500 nM |
| Cc1nn2c(C(=O)NC3Cc4ccc(Cc5ccccc5)cc4C3)ccnc2c1C(N)=O (centres unmarked) [Compound 51, N7-(5-benzylindan-2-yl)-2-methyl-pyrazolo[1,5-a]pyrimidine-3,7-dicarboxamide] | 5000 to 50000 nM |
| COCc1nn2c(C(=O)NC3COc4ccccc4C3)ccnc2c1C(N)=O (centres unmarked) [Compound 78, N7-chroman-3-yl-2-(methoxymethyl)pyrazolo[1,5-a]pyrimidine-3,7-dicarboxamide] | 50 to 500 nM |
| COCc1nn2c(C(=O)NC3Cc4ccccc4C3)ccnc2c1C(N)=O [Compound 57, N7-indan-2-yl-2-(methoxymethyl)pyrazolo[1,5-a]pyrimidine-3,7-dicarboxamide] | < 50 nM |
| Cc1nn2c(C(=O)NC3CC(F)(F)C3)ccnc2c1C(N)=O [Compound 48, N7-(3,3-difluorocyclobutyl)-2-methyl-pyrazolo[1,5-a]pyrimidine-3,7-dicarboxamide] | 50 to 500 nM |
| COCc1nn2c(C(=O)NC3CCc4ccc(OC)cc4C3)ccnc2c1C(N)=O (centres unmarked) [Compound 73, 2-(methoxymethyl)-N7-(7-methoxytetralin-2-yl)pyrazolo[1,5-a]pyrimidine-3,7-dicarboxamide] | < 50 nM |
| NC(=O)c1cnn2c(C(=O)NC3CCC(F)(F)CC3)ccnc12 [Compound 103, N7-(4,4-difluorocyclohexyl)pyrazolo[1,5-a]pyrimidine-3,7-dicarboxamide] | 500 to 5000 nM |
| COCc1nc2c(C(=O)NC3CC(F)(F)C3)ccnn2c1C(N)=O [Compound 54, N8-(3,3-difluorocyclobutyl)-2-(methoxymethyl)imidazo[1,2-b]pyridazine-3,8-dicarboxamide] | < 50 nM |
| Cc1nc2c(C(=O)NC3CC(F)(F)C3)ccnn2c1C(N)=O [Compound 26, N8-(3,3-difluorocyclobutyl)-2-methyl-imidazo[1,2-b]pyridazine-3,8-dicarboxamide] | 50 to 500 nM |
| CNc1nn2c(C(=O)NC3CC(F)(F)C3)ccnc2c1C(N)=O [Compound 34, N7-(3,3-difluorocyclobutyl)-2-(methylamino)pyrazolo[1,5-a]pyrimidine-3,7-dicarboxamide] | < 50 nM |
| NC(=O)c1cnn2c(C(=O)NC3Cc4nccn4C3)ccnc12 (centres unmarked) [Compound 19, N7-(6,7-dihydro-5H-pyrrolo[1,2-a]imidazol-6-yl)pyrazolo[1,5-a]pyrimidine-3,7-dicarboxamide] | 5000 to 50000 nM |
| COCc1nn2c(C(=O)NC3CC4(C3)CC(F)(F)C4)ccnc2c1C(N)=O [Compound 126, N7-(2,2-difluorospiro[3.3]heptan-6-yl)-2-(methoxymethyl)pyrazolo[1,5-a]pyrimidine-3,7-dicarboxamide] | 50 to 500 nM |
| COCc1nc2c(C(=O)NC3CC(F)(F)c4ccccc43)ccnn2c1C(N)=O (centres unmarked) [Compound 107, N8-(3,3-difluoroindan-1-yl)-2-(methoxymethyl)imidazo[1,2-b]pyridazine-3,8-dicarboxamide] | < 50 nM |

Further lines, results first:

| IC50 | Compound |
| --- | --- |
| < 50 nM | COCc1nn2c(C(=O)NC3COc4cc(F)cc(F)c43)ccnc2c1C(N)=O (centres unmarked) [Compound 153, N7-(4,6-difluoro-2,3-dihydrobenzofuran-3-yl)-2-(methoxymethyl)pyrazolo[1,5-a]pyrimidine-3,7-dicarboxamide] |
| < 50 nM | COCc1nc2c(C(=O)NC3Cc4cc(F)cc(F)c4C3)ccnn2c1C(N)=O (centres unmarked) [Compound 164, N8-(4,6-difluoroindan-2-yl)-2-(methoxymethyl)imidazo[1,2-b]pyridazine-3,8-dicarboxamide] |
| < 50 nM | COCc1nc2c(C(=O)N[C@@H]3CCS(=O)(=O)c4ccccc43)ccnn2c1C(N)=O [Compound 219, 2-(methoxymethyl)-N8-[(4R)-1,1-dioxo-3,4-dihydro-2H-thiochromen-4-yl]imidazo[1,2-b]pyridazine-3,8-dicarboxamide] |
| < 50 nM | COCc1nn2c(C(=O)N[C@H]3CCCc4ccccc43)ccnc2c1C(N)=O [Compound 193, 2-(methoxymethyl)-N7-[(1S)-tetralin-1-yl]pyrazolo[1,5-a]pyrimidine-3,7-dicarboxamide] |
| < 50 nM | NC(=O)c1c(C2CC2)nn2c(C(=O)NCc3ccc(F)cc3)ccnc12 [Compound 140, 2-cyclopropyl-N7-[(4-fluorophenyl)methyl]pyrazolo[1,5-a]pyrimidine-3,7-dicarboxamide] |
| < 50 nM | COCc1nn2c(C(=O)N[C@H]3CCc4ccccc43)ccnc2c1C(N)=O [Compound 183, 2-(methoxymethyl)-N7-[(1S)-indan-1-yl]pyrazolo[1,5-a]pyrimidine-3,7-dicarboxamide] |
| < 50 nM | NC(=O)c1c(C2CC2)nn2c(C(=O)N[C@@H]3CCS(=O)(=O)c4ccccc43)ccnc12 [Compound 235, 2-cyclopropyl-N7-[(4R)-1,1-dioxo-3,4-dihydro-2H-thiochromen-4-yl]pyrazolo[1,5-a]pyrimidine-3,7-dicarboxamide] |
| < 50 nM | NC(=O)c1c(C2CC2)nc2c(C(=O)NC3CCC(F)(F)CC3)ccnn12 [Compound 150, 2-cyclopropyl-N8-(4,4-difluorocyclohexyl)imidazo[1,2-b]pyridazine-3,8-dicarboxamide] |
| < 50 nM | COCc1nc2c(C(=O)NC3CS(=O)(=O)c4ccccc43)ccnn2c1C(N)=O (centres unmarked) [Compound 223, N8-(1,1-dioxo-2,3-dihydrobenzothiophen-3-yl)-2-(methoxymethyl)imidazo[1,2-b]pyridazine-3,8-dicarboxamide] |

Same assay, conditions: hGPR68 IC50, HEK293T cells transiently expressing hGPR68, antagonism of pH 5.5 stimulated cAMP, 15 min

| IC50 | Compound |
| --- | --- |
| 500 to 5000 nM | NC(=O)c1c(C2CCOC2)nn2c(C(=O)NC3CC(F)(F)C3)ccnc12 (centres unmarked) [Compound 45, N7-(3,3-difluorocyclobutyl)-2-tetrahydrofuran-3-yl-pyrazolo[1,5-a]pyrimidine-3,7-dicarboxamide] |
| 5000 to 50000 nM | CC(C)OCc1nn2c(C(=O)NC3CC(F)(F)C3)ccnc2c1C(N)=O [Compound 28, N7-(3,3-difluorocyclobutyl)-2-(isopropoxymethyl)pyrazolo[1,5-a]pyrimidine-3,7-dicarboxamide] |
